Entries after “also recorded” stand apart in the source; their conditions may differ.
Key:
[1] = tested on: Cyp3a; test: Oxidation of DBF by liver and intestinal microsomes
[2] = tested on: Cyp2b10 and Cyp2c29; test: 16β-Hydroxylation of testosterone by liver microsomes; conditions: liver microsomes of both transgenic strains
[3] = tested on: Cyp3a; test: 6β-Hydroxylation of testosterone by liver and intestinal microsomes; conditions: Cyp3a cluster KO and Cyp3a11 KO
[4] = Description: The study consisted of 4 groups with 4 animals per group. […] On day 4 of the study midazolam (1 mg/kg) was administered by IP injection and 10 μL blood samples were collected at 10, 20, 40, 60, 120, 240 and 360 min for PK analysis (Table 1).
[5] = tested on: Cyp1a1 and Cyp1a2; test: Ethoxyresorufin de-ethylation activity (EROD) of liver microsomes; type: in vivo, mouse; conditions: both strains
Description: (B)—Ethoxyresorufin de-ethylation; (C)—methoxyresorufin de-methylation. Data are mean±SD (n=4).
Ethoxyresorufin de-ethylation activity (EROD) was similar in both Cyp3a cluster KO and wild type mouse liver microsomes. EROD is catalysed by both Cyp1a 1 and Cyp1a2 isoforms, with Cyp1a1 making the major contribution. […] There was no difference in methoxyresoryfin de-methylation (MROD) activity between wild type and Cyp3a cluster KO mice. MROD is catalysed predominantly by Cyp1a2.

[6] = 1'-Hydroxymidazolam pharmacokinetics after IV or oral midazolam; conditions: for Decrease in AUC for 1'-hydroxymidazolam compared to wild type: midazolam 1 mg/kg IV, rifampicin pre-treated
Description: On day 4 of the study midazolam (1 mg/kg) was administered by IV injection to animals from groups 1-6 and orally (2 mg/kg) to mice from groups 7-9. Blood samples were collected at 2, 5, 10, 20, 30, 45, 60, 90, 120 and 150 min (serial bleeds) after IV dosing, at 10, 20, 40, 60, 90, 120, 240 and 360 min after the oral dosing, for PK analysis (Table 3).
Total concentrations of 1′-hydroxymidazolam were measured following pre-treatment of blood with B-glucuronidase. The pharmacokinetics of the 1′-hydroxymidazolam after the IV injection of the parent compound are presented on FIG. 1s.

[7] = tested on: Cyp3a; test: Oxidation of BFC by liver and intestinal microsomes; type: in vitro ADME, mouse
[8] = tested on: Cyp3a; test: Oxidation of 7-BQ by liver microsomes

With `O=C(OCc1ccccc1)c1ccccc1-c1c2ccc(=O)cc-2oc2cc(OCc3ccccc3)ccc12` [DBF, dibenzylfluorescein] the “DBF oxidation by liver microsomes compared to wild type” value ([1]; Cyp3a cluster KO and Cyp3a11 KO) was “pronounced decrease” and the “DBF oxidation by intestinal microsomes, wild type vs knockout strains” value ([1]; intestinal microsomes) was “no statistically significant difference”.

With `C[C@]12CC[C@H]3[C@@H](CCC4=CC(=O)CC[C@@]43C)[C@@H]1CC[C@@H]2O` [testosterone] the “16β-Hydroxylation of testosterone compared to wild type” value [2] was “increased” and the “6β-hydroxylation of testosterone compared to wild type” value [3] was “significant decrease”.

In the case of `CO[C@H]1/C=C/O[C@@]2(C)Oc3c(C)c(O)c4c(O)c(c(/C=N/N5CCN(C)CC5)c(O)c4c3C2=O)NC(=O)/C(C)=C\C=C\[C@H](C)[C@H](O)[C@@H](C)[C@@H](O)[C@@H](C)[C@H](OC(C)=O)[C@@H]1C` [rifampicin], the “Effect of rifampicin treatment on midazolam elimination” value ([4]; rifampicin 60 mg/kg 3 daily doses, midazolam 1 mg/kg IP day 4, both strains, higher effect in C57BL/6J) is reported as “accelerated elimination” and the “EROD metabolism after rifampicin” value [5] is reported as “small induction”.

For `OCc1ncc2n1-c1ccc(Cl)cc1C(c1ccccc1F)=NC2` [1′-hydroxymidazolam], the “Decrease in AUC for 1'-hydroxymidazolam compared to wild type” value ([6]; Cyp3a11 KO) was ~2 times, the “Decrease in AUC for 1'-hydroxymidazolam compared to wild type” value ([6]; Cyp3a cluster KO) was ~3 times and the “Terminal phase elimination of 1'-hydroxymidazolam compared to other strains” value ([6]; Cyp3a cluster KO, midazolam IV) was “slightly slower elimination”.

With `O=c1cc(C(F)(F)F)c2ccc(OCc3ccccc3)cc2o1` [BFC, 7-benzyloxy-4-trifluoromethylcoumarin] the “BFC activity between liver microsomal samples” value ([7]; C57BL/6J, Cyp3a cluster KO, Cyp3a11 KO liver microsomes) was “no difference” and the “BFC oxidation in intestinal microsomes of transgenic mice” value ([7]; intestinal microsomes) was “small but statistically significant increase”.

With `Cc1ncc2n1-c1ccc(Cl)cc1C(c1ccccc1F)=NC2` [midazolam] the “Absorption after IP administration” value ([4]; midazolam 1 mg/kg IP, both mouse strains) was “fast absorption”, the “Midazolam AUC / PK, Cyp3a cluster KO compared to wild type” value ([4]; midazolam 1 mg/kg IP, control (untreated) animals) was “similar; also recorded: no difference” and the “Difference in midazolam AUC, Cyp3a cluster KO vs wild type” value ([4]; rifampicin treated mice) was 1.6 times.

With `c1ccc(COc2ccc3cccnc3c2)cc1` [7-BQ, 7-benzyloxyquinoline] the “Activity towards 7-BQ in Cyp3a cluster KO, level compared to the wild type mice” value ([8]; conclusion statement) was “below 20%”, the “7-BQ oxidation in Cyp3a cluster KO liver microsomes, % of corresponding C57BL/6J group” value ([8]; control animals) was 18% and the “7-BQ oxidation in Cyp3a cluster KO liver microsomes, % of corresponding C57BL/6J group” value ([8]; rifampicin treated animals) was 6.7%.

Reference: patent publication US8809619B2, “Knockout mice for a P450 gene cluster” (ITI Scotland Limited, priority 2007, dated 2014)
